# According to patent US6908919B2, “Substituted polycyclic aryl and heteroaryl pyrazinones useful for selective inhibition of the coagulation cascade” (Pharmacia Corporation, priority 1999, dated 2005):
# Read-outs that look alike come from different tables or passages of the source.
# Experiments:
# [1] = biological target: Human factor Xa (Homo sapiens, UniProt P00742); experiment: Xa Assay; assay type: biochemical; design: purchased Enzyme Research Laboratories, South Bend Ind
# [2] = biological target: T1, recombinant soluble tissue factor and recombinant human factor VIIa (TF-VIIa) (Homo sapiens, UniProt P08709); experiment: TF-VIIa Assay; assay type: biochemical; details: for % Inhibition TF-VIIa (30 µM): at 30 µM inhibitor; for IC50: read-out: IC50 TF-VIIa
# T1 construct: conversion of coagulation factor VII to VIIa by Xa; purchased American Diagnostica, Greenwich Conn; host or cells: VIIa purchased; soluble TF made in house in E. coli
# T1 sequence (P08709 61-212 limits assumed): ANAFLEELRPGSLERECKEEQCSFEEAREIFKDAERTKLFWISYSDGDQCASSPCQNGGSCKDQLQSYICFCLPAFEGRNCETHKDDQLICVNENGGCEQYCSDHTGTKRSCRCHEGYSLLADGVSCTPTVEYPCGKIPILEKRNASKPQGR
# T1 sequence (P08709 213-466 limits assumed): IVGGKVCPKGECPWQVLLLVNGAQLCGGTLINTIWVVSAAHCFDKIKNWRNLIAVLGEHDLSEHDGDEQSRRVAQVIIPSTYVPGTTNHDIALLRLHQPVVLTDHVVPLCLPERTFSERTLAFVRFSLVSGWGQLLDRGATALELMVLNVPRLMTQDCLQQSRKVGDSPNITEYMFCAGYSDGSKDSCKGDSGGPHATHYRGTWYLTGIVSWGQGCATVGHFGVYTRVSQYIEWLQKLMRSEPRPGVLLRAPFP
# T1 sequence (P13726 33-251 partner limits assumed): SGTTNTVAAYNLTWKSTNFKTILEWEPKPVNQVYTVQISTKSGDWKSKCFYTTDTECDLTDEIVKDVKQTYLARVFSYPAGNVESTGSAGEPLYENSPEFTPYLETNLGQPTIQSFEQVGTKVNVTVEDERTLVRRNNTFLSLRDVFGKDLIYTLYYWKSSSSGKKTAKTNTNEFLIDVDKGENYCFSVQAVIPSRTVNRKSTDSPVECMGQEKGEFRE
# Human factor Xa, sequence (P00742 41-179 limits assumed): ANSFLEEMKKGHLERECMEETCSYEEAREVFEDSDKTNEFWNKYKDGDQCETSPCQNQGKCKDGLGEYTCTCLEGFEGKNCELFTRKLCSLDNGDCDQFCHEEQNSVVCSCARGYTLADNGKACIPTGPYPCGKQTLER
# Human factor Xa, sequence (P00742 235-488 limits assumed): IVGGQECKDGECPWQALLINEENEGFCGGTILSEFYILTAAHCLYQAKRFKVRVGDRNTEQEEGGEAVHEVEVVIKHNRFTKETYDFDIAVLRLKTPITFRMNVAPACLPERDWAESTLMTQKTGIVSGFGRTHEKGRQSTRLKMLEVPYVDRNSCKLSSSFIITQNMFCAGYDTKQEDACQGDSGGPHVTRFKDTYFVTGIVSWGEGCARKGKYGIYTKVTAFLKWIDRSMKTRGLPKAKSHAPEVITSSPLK
SMILES,% Inhibition Factor Xa (30 µM) ([1]; at 30 µM inhibitor),% Inhibition TF-VIIa (30 µM) [2],further results
N=C(N)c1ccc(CNC(=O)Cn2c(-c3ccc(Cl)cc3)c(Cl)nc(NCc3ccncc3)c2=O)cc1 [1471-19],26%,33%,–
N=C(N)c1ccc(CNC(=O)Cn2c(-c3ccc(Cl)cc3)c(Cl)nc(NCCN3CCOCC3)c2=O)cc1 [1471-20],34%,42%,–
COc1ccc(-c2c(Cl)nc(NCc3ccccc3)c(=O)n2CC(=O)NCc2ccc(C(=N)N)cc2)cc1 [1471-33],22%,31%,–
COc1ccc(-c2c(Cl)nc(NCc3ccncc3)c(=O)n2CC(=O)NCc2ccc(C(=N)N)cc2)cc1 [1471-35],22%,37%,–
COc1ccc(-c2c(Cl)nc(NCCN3CCOCC3)c(=O)n2CC(=O)NCc2ccc(C(=N)N)cc2)cc1 [1471-36],6%,11%,–
COc1ccc(-c2c(Cl)nc(NCCc3ccncc3)c(=O)n2CC(=O)NCc2ccc(C(=N)N)cc2)cc1 [1471-37],7%,39%,–
COc1ccc(-c2c(Cl)nc(NCCc3cccnc3)c(=O)n2CC(=O)NCc2ccc(C(=N)N)cc2)cc1 [1471-40],11%,40%,–
N=C(N)c1ccc(CNC(=O)Cn2c(-c3ccc4c(c3)OCO4)c(Cl)nc(NCCN3CCOCC3)c2=O)cc1 [1471-44],13%,34%,–
CCc1c(Cl)nc(NCCc2cccc(Cl)c2)c(=O)n1CC(=O)NCc1ccc(C(=N)N)cc1 [1471-62],0%,4%,–
N=C(N)c1ccc(CNC(=O)Cn2c(-c3ccc(-c4ccccc4)cc3)c(Cl)nc(NCc3ccncc3)c2=O)cc1 [1471-67],16%,12%,–
N=C(N)c1ccc(CNC(=O)Cn2c(-c3ccc(-c4ccccc4)cc3)c(Cl)nc(NCCc3cccc(Cl)c3)c2=O)cc1 [1471-70],12%,10%,–
N=C(N)c1ccc(CNC(=O)Cn2c(-c3ccc(-c4ccccc4)cc3)c(Cl)nc(NCCc3ccccc3)c2=O)cc1 [1471-71],0%,6%,–
N=C(N)c1ccc(CNC(=O)Cn2c(-c3ccc(-c4ccccc4)cc3)c(Cl)nc(NCCc3cccnc3)c2=O)cc1 [1471-72],22%,15%,–
N=C(N)c1ccc(CNC(=O)Cn2c(-c3ccccc3)c(Cl)nc(NC(Cc3ccccc3)c3ccccc3)c2=O)cc1 (stereo not shown) [1507-07],–,25%,–
N=C(N)c1ccc(CNC(=O)Cn2c(-c3ccccc3)c(Cl)nc(NC3Cc4ccccc4C3)c2=O)cc1 [1507-08],1%,7%,–
N=C(N)c1ccc(CNC(=O)Cn2c(-c3ccccc3)c(Cl)nc(NCc3ccc(Cl)cc3Cl)c2=O)cc1 [1507-22],–,45%,–
N=C(N)c1ccc(CNC(=O)Cn2c(-c3ccccc3)c(Cl)nc(NCc3ccccn3)c2=O)cc1 [1507-24],15%,0%,–
N=C(N)c1ccc(CNC(=O)Cn2c(-c3ccccc3)c(Cl)nc(NCc3cccc4ccccc34)c2=O)cc1 [1507-28],–,38%,–
N=C(N)c1ccc(CNC(=O)Cn2c(-c3ccccc3)c(Cl)nc(NCC(F)(F)F)c2=O)cc1 [1507-41],17%,48%,–
N=C(N)c1ccc(CNC(=O)Cn2c(-c3ccccc3)c(Cl)nc(NCc3cc(F)cc(C(F)(F)F)c3)c2=O)cc1 [1512-29],4%,47%,–
Cc1cccc(Cl)c1CNc1nc(Cl)c(-c2ccccc2)n(CC(=O)NCc2ccc(C(=N)N)cc2)c1=O [1512-31],14%,43%,–
N=C(N)c1ccc(CNC(=O)Cn2c(-c3ccc(C(F)(F)F)cc3)c(Cl)nc(NC3CCC3)c2=O)cc1 [1515-20],–,32%,–

SMILES,% Inhibition Factor Xa (30 µM) ([1]; at 30 µM inhibitor),% Inhibition TF-VIIa (30 µM) [2],further results
CC(C)Nc1nc(Cl)c(-c2cc(N)cc(C(=O)O)c2)n(CC(=O)NCc2ccc(C(=N)N)cc2)c1=O [Example 123],–,–,IC50 [2]: 20 nM
CC(C)Nc1nc(Cl)c(-c2cc(N)cc(C(=O)NCc3ccccc3Cl)c2)n(CC(=O)NCc2ccc(C(=N)N)cc2)c1=O [Example 128-10],–,–,IC50 [2]: 9 nM
CC(C)Nc1nc(Cl)c(-c2cc(N)cc(C(=O)NCCCc3ccccc3)c2)n(CC(=O)NCc2ccc(C(=N)N)cc2)c1=O [Example 128-21],–,–,IC50 [2]: 37 nM
CC(C)Nc1nc(Cl)c(-c2cc(N)cc(C(=O)NCC(c3ccccc3)c3ccccc3)c2)n(CC(=O)NCc2ccc(C(=N)N)cc2)c1=O [Example 128-22],–,–,IC50 [2]: 52 nM
CC(C)Nc1nc(Cl)c(-c2cc(N)cc(C(=O)NCc3ccc4ccccc4c3)c2)n(CC(=O)NCc2ccc(C(=N)N)cc2)c1=O [Example 128-23],–,–,IC50 [2]: 33.7 nM
CC(C)Nc1nc(Cl)c(-c2cc(N)cc(C(=O)NC3CCc4ccccc4C3)c2)n(CC(=O)NCc2ccc(C(=N)N)cc2)c1=O (stereo not shown) [Example 128-24],–,–,IC50 [2]: 18.7 nM
C[C@@H](Nc1nc(Cl)c(-c2cccc(N)c2)n(CC(=O)NCc2ccc(C(=N)N)cc2)c1=O)C(=O)O [Example 134],–,–,IC50 [2]: 51 nM
N=C(N)c1ccc(CNC(=O)Cn2c(-c3c(Cl)cccc3Cl)c(Cl)nc(NCCc3cccc(Cl)c3)c2=O)cc1 [Example 1517-24],–,–,% Inhibition Factor Xa (30 µM) ([1]; at 30 µM): 0%
N=C(N)c1ccc(CNC(=O)Cn2c(-c3ccccc3)c(Cl)nc(NC3CCCCC3)c2=O)cc1 [Example 1517-25],–,–,% Inhibition Factor Xa (30 µM) ([1]; at 30 µM): 0%
CCCC(CCC)Nc1nc(Cl)c(-c2ccccc2)n(CC(=O)NCc2ccc(C(=N)N)cc2)c1=O [Example 1517-26],–,–,% Inhibition Factor Xa (30 µM) ([1]; at 30 µM): 0%
CC(C)N(C)c1nc(Cl)c(-c2ccccc2)n(CC(=O)NCc2ccc(C(=N)N)cc2)c1=O [Example 1517-31],–,–,% Inhibition Factor Xa (30 µM) ([1]; at 30 µM): 0%
CCCNc1nc(Cl)c(-c2ccccc2)n(CC(=O)NCc2ccc(C(=N)N)cc2)c1=O [Example 1517-33],–,–,% Inhibition Factor Xa (30 µM) ([1]; at 30 µM): 0%
C[Si](C)(C)CNc1nc(Cl)c(-c2ccccc2)n(CC(=O)NCc2ccc(C(=N)N)cc2)c1=O [Example 1517-36],–,–,% Inhibition Factor Xa (30 µM) ([1]; at 30 µM): 0%
CC(C)CCNc1nc(Cl)c(-c2ccccc2)n(CC(=O)NCc2ccc(C(=N)N)cc2)c1=O [Example 1517-40],–,–,% Inhibition Factor Xa (30 µM) ([1]; at 30 µM): 0%
CC(C)(C)CCNc1nc(Cl)c(-c2ccccc2)n(CC(=O)NCc2ccc(C(=N)N)cc2)c1=O [Example 1517-41],–,–,% Inhibition Factor Xa (30 µM) ([1]; at 30 µM): 0%
CCCCCNc1nc(Cl)c(-c2ccccc2)n(CC(=O)NCc2ccc(C(=N)N)cc2)c1=O [Example 1517-48],–,–,% Inhibition Factor Xa (30 µM) ([1]; at 30 µM): 0%
O=C(Cn1c(-c2ccc(Cl)cc2)c(Cl)nc(NCCc2cccc(Cl)c2)c1=O)NCCc1ccncc1 [Example E-0027],–,–,% Inhibition Factor Xa (100 µM) ([1]; inhibitor at 100 µM): 0%
O=C(Cn1c(-c2ccc(Cl)cc2)c(Cl)nc(NCCN2CCOCC2)c1=O)NCCc1ccncc1 [Example E-0031],–,–,% Inhibition Factor Xa (100 µM) ([1]; inhibitor at 100 µM): 0%
COc1ccc(-c2c(Cl)nc(NCCc3ccccc3)c(=O)n2CC(=O)NCCc2ccncc2)cc1 [Example E-0100],–,–,% Inhibition Factor Xa (100 µM) ([1]; inhibitor at 100 µM): 6%
O=C(Cn1c(-c2ccc(-c3ccccc3)cc2)c(Cl)nc(NCCc2cccc(Cl)c2)c1=O)NCCc1cccnc1 [Example E-0116],–,–,% Inhibition Factor Xa (100 µM) [1]: 4%
O=C(Cn1c(-c2ccc(-c3ccccc3)cc2)c(Cl)nc(NCCc2ccc(Cl)cc2)c1=O)NCCc1cccnc1 [Example E-0119],–,–,% Inhibition Factor Xa (100 µM) [1]: 5%
